The results in this text go back to patent US20060025434A1, “Therapeutic agents for drug/substance dependence” (Toray Industries, Inc., priority 2003, published 2006).

This assay concerns SD male rats. Put plainly: Conditioned place preference (CPP) test: recovery after acquisition of methamphetamine-induced psychological dependence. The assay is classed as in vivo. Conditions: 0.3 mg/kg subcutaneous twice per day, after methamphetamine (2.0 mg/kg s.c.) conditioning. From the text:
Effect of Compound 1 in Promoting the Recovery Process after Acquisition of Psychological Dependence by a Stimulant Drug (Therapeutic Effect for Stimulant Drug Dependence)
The effect of compound 1 in promoting recovery during the convalescence after the acquisition of psychological dependence by a stimulant drug was discussed using the conditioned place preference method (Suzuki, T., et al., Psychopharmacology, 102, 438, 1990; Spyraki, C., The Psychopharmacology of Addiction, p. 96, Oxford Medical Publication, New York, 1988; hereinafter called “CPP method”). As a stimulant drug forming psychological dependence, methamphetamine hydrochloride was used. Furthermore, as a therapeutic agent for drug dependence, compound 1 was used.
For the experiment, SD male rats were used. The experimental apparatus used was a CPP apparatus having two compartments (one black, the other white). In the experiment, at first, the rats were trained for being conditioned with the sensory effect of the drug and the environments (white and black) in the apparatus for 6 days. The conditioned rats were placed and tested in the apparatus without drug administration. The drug dependence was evaluated with the residence time of the rats in the white and black boxes in the test session, as an indicator, in reference to whether the rats preferred the drug-induced sensory effect. […]

Turning to `Oc1ccc2c3c1O[C@H]1c4c(c5cc(F)cc6c5n4CCC6)C[C@@]4(O)[C@@H](C2)N(CC2CC2)CC[C@]314` [Compound 1], the “recovery from the state of stimulant drug dependence (CPP residence time)” value is reported as “significant recovery” (7th day after start of administration, significance level 5% or less vs solvent) and “apparent recovery” (from the 4th day after start of administration).
